Measurements: PubChem BioAssay AID2060895 (Molecular Pharmacology Branch, DTP, NCI, 2025)

Test system: PDC 899932-113-R3-J6 complex spheroid viability
Test: Anticancer human tumor 899932-113-R3-J6-PDC patient-derived melanoma cell line growth inhibition [RAS]
Settings: for IC50: curve of first compound; for viability, T/C: stronger effect = lower value; active = viability on the fitted dose curve at most 10% of control; inactive = the rest
How it was run: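 Agents were tested in combination matrices in half-log decrements from a top concentration at or near clinical Cmax (10 microM if undetermined). Targets were multi-cell spheroids of tumour lines plus HUVEC and MSC stromal cells.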
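For viability, T/C in this document: spheroids exposed to agents for seven days before readout; 100% = DMSO vehicle control wells.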

CC1(C)CCC(Nc2ncc(C(F)(F)F)c(-c3c[nH]c4c(P(C)(C)=O)c(C#N)ccc34)n2)CN1 (centres undefined) + C=CC(=O)N1CCN(c2nc(OCC3CCCN3C)nc3c(F)c(-c4nc(N)cc(C)c4C(F)(F)F)c(Cl)cc23)C(C)C1
9.74 nM: IC50 (second compound 0.01 µM)
8.03 nM: IC50 (second compound 1 µM)
11 nM: IC50 (second compound 0.0316 µM)
9.45 nM: IC50 (second compound 0.316 µM)
active: viability, T/C (second compound 0.00316 µM, first compound 0.3 µM) 8.68% | viability, T/C (second compound 0.0316 µM, first compound 0.3 µM) 8.82% | viability, T/C (second compound 0.1 µM, first compound 0.3 µM) 8.6% | viability, T/C (second compound 0.316 µM, first compound 0.3 µM) 9.67% | viability, T/C (second compound 1 µM, first compound 0.3 µM) 10.9%
8.77 nM: IC50 (second compound 0.00316 µM)
inactive: viability, T/C (second compound 0.00316 µM, first compound 0.000949 µM) 105% | viability, T/C (second compound 0.00316 µM, first compound 0.003 µM) 73% | viability, T/C (second compound 0.00316 µM, first compound 0.00949 µM) 51.5% | viability, T/C (second compound 0.00316 µM, first compound 0.03 µM) 25.9% | viability, T/C (second compound 0.00316 µM, first compound 0.0949 µM) 16.4% | viability, T/C (second compound 0.01 µM, first compound 0.000949 µM) 96.8% | viability, T/C (second compound 0.01 µM, first compound 0.003 µM) 79.2% | viability, T/C (second compound 0.01 µM, first compound 0.00949 µM) 48% | viability, T/C (second compound 0.01 µM, first compound 0.03 µM) 30.5% | viability, T/C (second compound 0.01 µM, first compound 0.0949 µM) 16.4% | viability, T/C (second compound 0.01 µM, first compound 0.3 µM) 11.2% | viability, T/C (second compound 0.0316 µM, first compound 0.000949 µM) 102% | viability, T/C (second compound 0.0316 µM, first compound 0.003 µM) 75.3% | viability, T/C (second compound 0.0316 µM, first compound 0.00949 µM) 56.3% | viability, T/C (second compound 0.0316 µM, first compound 0.03 µM) 29.9% | viability, T/C (second compound 0.0316 µM, first compound 0.0949 µM) 15.4% | viability, T/C (second compound 0.1 µM, first compound 0.000949 µM) 94.8% | viability, T/C (second compound 0.1 µM, first compound 0.003 µM) 68% | viability, T/C (second compound 0.1 µM, first compound 0.00949 µM) 51.4% | viability, T/C (second compound 0.1 µM, first compound 0.03 µM) 28.1% | viability, T/C (second compound 0.1 µM, first compound 0.0949 µM) 16.4% | viability, T/C (second compound 0.316 µM, first compound 0.000949 µM) 107% | viability, T/C (second compound 0.316 µM, first compound 0.003 µM) 73.9% | viability, T/C (second compound 0.316 µM, first compound 0.00949 µM) 52.9% | viability, T/C (second compound 0.316 µM, first compound 0.03 µM) 30.4% | viability, T/C (second compound 0.316 µM, first compound 0.0949 µM) 12.2% | viability, T/C (second compound 1 µM, first compound 0.000949 µM) 95.1% | viability, T/C (second compound 1 µM, first compound 0.003 µM) 71.7% | viability, T/C (second compound 1 µM, first compound 0.00949 µM) 47.4% | viability, T/C (second compound 1 µM, first compound 0.03 µM) 25.7% | viability, T/C (second compound 1 µM, first compound 0.0949 µM) 10.5%
8.56 nM: IC50 (second compound 0.1 µM)

CC1(O)CCCC1n1c(=O)c(C(F)F)cc2cnc(NC3CCN(S(C)(=O)=O)CC3)nc21 (centres undefined) + C#Cc1c(F)ccc2cc(O)cc(-c3ncc4c(N5CC6CCC(C5)N6)nc(OCC56CCCN5CC(F)C6)nc4c3F)c12
3050 nM: IC50 (second compound 3.16 µM)
2570 nM: IC50 (second compound 0.1 µM)
3120 nM: IC50 (second compound 10 µM)
2470 nM: IC50 (second compound 0.0316 µM)
inactive: viability, T/C (second compound 0.0316 µM, first compound 0.0316 µM) 105% | viability, T/C (second compound 0.0316 µM, first compound 0.1 µM) 81.1% | viability, T/C (second compound 0.0316 µM, first compound 0.316 µM) 70.8% | viability, T/C (second compound 0.0316 µM, first compound 1 µM) 69.9% | viability, T/C (second compound 0.0316 µM, first compound 3.16 µM) 54.9% | viability, T/C (second compound 0.0316 µM, first compound 10 µM) 21.6% | viability, T/C (second compound 0.1 µM, first compound 0.0316 µM) 96.2% | viability, T/C (second compound 0.1 µM, first compound 0.1 µM) 86.9% | viability, T/C (second compound 0.1 µM, first compound 0.316 µM) 63.6% | viability, T/C (second compound 0.1 µM, first compound 1 µM) 62.3% | viability, T/C (second compound 0.1 µM, first compound 3.16 µM) 62% | viability, T/C (second compound 0.1 µM, first compound 10 µM) 24.5% | viability, T/C (second compound 0.316 µM, first compound 0.0316 µM) 99.2% | viability, T/C (second compound 0.316 µM, first compound 0.1 µM) 93% | viability, T/C (second compound 0.316 µM, first compound 0.316 µM) 75.9% | viability, T/C (second compound 0.316 µM, first compound 1 µM) 65.3% | viability, T/C (second compound 0.316 µM, first compound 3.16 µM) 56.6% | viability, T/C (second compound 0.316 µM, first compound 10 µM) 25.5% | viability, T/C (second compound 1 µM, first compound 0.0316 µM) 102% | viability, T/C (second compound 1 µM, first compound 0.1 µM) 89.7% | viability, T/C (second compound 1 µM, first compound 0.316 µM) 76.3% | viability, T/C (second compound 1 µM, first compound 1 µM) 70% | viability, T/C (second compound 1 µM, first compound 3.16 µM) 58.4% | viability, T/C (second compound 1 µM, first compound 10 µM) 24.7% | viability, T/C (second compound 3.16 µM, first compound 0.0316 µM) 114% | viability, T/C (second compound 3.16 µM, first compound 0.1 µM) 97.8% | viability, T/C (second compound 3.16 µM, first compound 0.316 µM) 69.8% | viability, T/C (second compound 3.16 µM, first compound 1 µM) 72.2% | viability, T/C (second compound 3.16 µM, first compound 3.16 µM) 62.4% | viability, T/C (second compound 3.16 µM, first compound 10 µM) 22.2% | viability, T/C (second compound 10 µM, first compound 0.0316 µM) 114% | viability, T/C (second compound 10 µM, first compound 0.1 µM) 89% | viability, T/C (second compound 10 µM, first compound 0.316 µM) 77.2% | viability, T/C (second compound 10 µM, first compound 1 µM) 68.8% | viability, T/C (second compound 10 µM, first compound 3.16 µM) 64.8% | viability, T/C (second compound 10 µM, first compound 10 µM) 11.3%
3470 nM: IC50 (second compound 1 µM)
3200 nM: IC50 (second compound 0.316 µM)
